IC50 data for nine compounds are collected here from US8889704B2 (Array BioPharma Inc., priority 2011, dated 2014).

What all share (type): biochemical
The target in assay [1] is PIM-1 (Homo sapiens, UniProt P11309). Briefly: Enzyme PIM-1 Assay ([33P]ATP incorporation into PIM2tide, filter plate). The conditions noted are these: averaged IC50; 35 μM ATP, 7.5 μM PIM2tide, 0.25 nM PIM-1, 60 min at 22° C. How it is done: (§1) The assay for the determination of PIM-1 activity is based on the incorporation of [^33P]PO4 from [γ-^33P]ATP into PIM2tide substrate and capture of the radiolabeled peptide onto a Whatman P81 (phosphocellulose) filter plate. The amount of radiolabeled product is then measured by liquid scintillation counting. The final buffer conditions were as follows: 20 mM K^+MOPS, pH 7.4, 10 mM MgCl2, 0.005% Tween-20, 1 mM DTT. Assay mixtures contained 35 μM [γ-^33P]ATP (20 μCi/mL), 7.5 μM PIM2tide and 0.25 nM PIM-1 in a total volume of 50 μL. Incubations were carried out for 60 min at 22° C. and quenched with 75 μL of 200 mM H3PO4, filtered through a Whatman P81 plate and washed (1×200 μL and 5×100 μL) with 200 mM H3PO4. Fifty μL of liquid scintillation cocktail were then added per well, and the plate was counted for 30 s/well using a TopCount NXT.
(§2) Compounds were prepared at 50× the final concentration in DMSO by conducting 3-fold serial dilutions from a 500-μM intermediate dilution to give a 10-point dosing curve having a high dose of 10 μM. One-μL aliquots of these were then transferred to the assay mixtures above to give a final concentration of DMSO of 2%. A standard or reference compound was typically included on each assay plate to validate that plate. For each plate, percent of control (POC) values were calculated for each well. IC50 values were estimated from the POC values using a standard 4-parameter logistic model. The IC50 is defined as the concentration of inhibitor at which the POC equals 50 for the fitted curve.

Assay [2] addresses T1, GST-tagged recombinant full-length human Pim-2 (Homo sapiens, UniProt Q9P1W9).
T1 construct: GST-tagged recombinant full-length human Pim-2; GST
Briefly: PIM-2 Assay (as Example A). The conditions noted are these: averaged IC50; 4 μM ATP, 1.0 μM PIM2tide, 1.5 nM Pim-2. How it is done:
as §1, §2
Assay was performed as described in Example A, using 4 μM [γ-^33P]ATP (20 μCi/mL), 1.0 μM PIM2tide and 1.5 nM GST-tagged recombinant full-length human Pim-2 in place of PIM-1.

The target in assay [3] is recombinant rat PIM-3 (Rattus norvegicus, UniProt O70444). Briefly: PIM-3 Assay (as Example A). The conditions noted are these: averaged IC50; 30 μM ATP, 3.75 μM PIM2tide, 0.5 nM PIM-3. How it is done:
as §1, §2
Assay was performed as described in Example A, using 30 μM [γ-^33P]ATP (20 μCi/mL), 3.75 μM PIM2tide and 0.5 nM recombinant rat PIM-3 in place of PIM-1.

SMILES strings stand for the structures. Where a name gives a salt, the structure may show the parent alone.

T1 sequence (Q9P1W9 whole entry): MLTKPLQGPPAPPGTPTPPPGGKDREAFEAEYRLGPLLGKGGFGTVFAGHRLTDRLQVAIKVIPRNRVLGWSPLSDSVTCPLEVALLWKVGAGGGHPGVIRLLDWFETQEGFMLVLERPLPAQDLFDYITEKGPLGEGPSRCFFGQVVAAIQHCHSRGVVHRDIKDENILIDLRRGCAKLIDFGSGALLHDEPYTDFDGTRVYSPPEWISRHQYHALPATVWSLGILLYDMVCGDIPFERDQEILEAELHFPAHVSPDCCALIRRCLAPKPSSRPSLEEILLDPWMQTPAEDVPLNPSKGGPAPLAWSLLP
Chain of PIM-1 (P11309 whole entry, species assumed): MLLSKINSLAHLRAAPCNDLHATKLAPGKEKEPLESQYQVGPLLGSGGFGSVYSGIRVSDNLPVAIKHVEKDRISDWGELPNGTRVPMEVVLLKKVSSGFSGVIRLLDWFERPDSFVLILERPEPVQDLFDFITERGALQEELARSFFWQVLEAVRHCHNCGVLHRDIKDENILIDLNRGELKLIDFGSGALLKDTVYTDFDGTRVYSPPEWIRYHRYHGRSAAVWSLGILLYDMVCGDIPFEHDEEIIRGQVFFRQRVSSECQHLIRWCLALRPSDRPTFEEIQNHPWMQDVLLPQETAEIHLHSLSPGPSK

On to `CC(C)(C)NC(=O)c1ccc2ccc(-c3nnc4ccc([C@@H](N5CC[C@@H](N)C5)C(F)(F)F)cn34)nc2c1` [Example 54, 2-(6-((R)-1-((R)-3-aminopyrrolidin-1-yl)-2,2,2-trifluoroethyl)-[1,2,4]triazolo[4,3-a]pyridin-3-yl)-N-tert-butylquinoline-7-carboxamide dihydrochloride], for which the results for the IC50 in assay [1], in assay [2] and in assay [3] were 0.41 nM, 67 nM and 0.6 nM, respectively.
The corresponding values for `COC[C@H](C)Oc1ccc2ccc(-c3nnc4ccc([C@@H](N5CC[C@H](N)C5)C(F)(F)F)cn34)nc2c1` [Example 150, (S)-1-((R)-2,2,2-trifluoro-1-(3-(7-((S)-1-methoxypropan-2-yloxy)quinolin-2-yl)-[1,2,4]triazolo[4,3-a]pyridin-6-yl)ethyl)pyrrolidin-3-amine dihydrochloride] are 0.41 nM, above 100 nM and 3.5 nM.
For `COc1cccc2ccc(-c3nnc4ccc([C@@H](N5CCC(C)(O)C5)C(F)(F)F)cn34)nc12` (single isomer, unassigned; diastereomer 1) [Example 193, hydrochloride], in that order: 13 nM, above 1000 nM and 67 nM.
As for `COC(C)(C)COc1cccc2ccc(-c3nnc4ccc([C@@H](N5CC[C@H](N)C5)C(F)(F)F)cn34)nc12` [Example 276, (S)-1-((R)-2,2,2-trifluoro-1-(3-(8-(2-methoxy-2-methylpropoxy)quinolin-2-yl)-[1,2,4]triazolo[4,3-a]pyridin-6-yl)ethyl)pyrrolidin-3-amine formate], the results for the IC50 in assay [1], in assay [2] and in assay [3] were 0.2 nM, 44 nM and 0.3 nM, respectively.
For `CC(C)Sc1ccc2ccc(-c3nnc4ccc([C@@H](N5CC[C@H](N)C5)C(F)(F)F)cn34)nc2c1` [Example 268, (S)-1-((R)-2,2,2-trifluoro-1-(3-(7-(isopropylthio)quinolin-2-yl)-[1,2,4]triazolo[4,3-a]pyridin-6-yl)ethyl)pyrrolidin-3-amine hydrochloride], in that order: 0.89 nM, above 1000 nM and 3.4 nM.
As to `FC(F)(F)[C@H](c1ccc2nnc(-c3ccc4ccc(C5CC5)cc4n3)n2c1)N1C[C@@H]2C[C@H]1CN2` [Example 77, 2-(6-((S)-1-((1S,4S)-2,5-diazabicyclo[2.2.1]heptan-2-yl)-2,2,2-trifluoroethyl)-[1,2,4]triazolo[4,3-a]pyridin-3-yl)-7-cyclopropylquinoline dihydrochloride], the IC50 in assay [1] is 0.16 nM; in assay [2] it was 10 nM; in assay [3], 0.3 nM.
The corresponding values for `N[C@H]1CCN([C@H](c2ccc3nnc(-c4ccc5ccc(O[C@@H]6CCC[C@H]6O)cc5n4)n3c2)C(F)(F)F)C1` (single isomer, unassigned; diastereomer 2) [Example 320, di-hydrochloride] are 0.14 nM, 111 nM and 0.3 nM.
Consider `COCCOc1ccc2ccc(-c3nnc4ccc([C@@H](N5CC[C@H](N)C5)C(F)(F)F)cn34)nc2c1F` [Example 179, (S)-1-((R)-2,2,2-trifluoro-1-(3-(8-fluoro-7-(2-methoxyethoxy)quinolin-2-yl)-[1,2,4]triazolo[4,3-a]pyridin-6-yl)ethyl)pyrrolidin-3-amine dihydrochloride], for which the IC50 in assay [1] was 2.44 nM; in assay [2], above 100 nM; in assay [3] it was 4.1 nM.
Consider `CC(C)(C#N)c1cccc2ccc(-c3nnc4ccc([C@@H](N5CC[C@H](N)C5)C(F)(F)F)cn34)nc12` [Example 99, 2-(2-(6-((R)-1-((S)-3-aminopyrrolidin-1-yl)-2,2,2-trifluoroethyl)-[1,2,4]triazolo[4,3-a]pyridin-3-yl)quinolin-8-yl)-2-methylpropanenitrile dihydrochloride], for which the IC50 in assay [1] was 0.11 nM; in assay [2], 55 nM; in assay [3], 0.6 nM.
